# Tested on: BFTC-905
# Experiment: Cell proliferation inhibition, WST-8, four days (Example 3)
# Type: cell-based
# Details: Homo sapiens, BFTC-905, 96 h, wild-type FGFR, no fusion
# Procedure: (§1) IC50 was calculated using the least-square method.
row,SMILES,IC50
1,"COc1cc2c(Oc3ccc4[nH]c(C)cc4c3F)ncnc2cc1OCCCN1CCCC1 [COMPOUND E, cediranib]",2.5 µM

# Tested on: HT-1376
# Experiment: as above
# Type: cell-based
# Details: Homo sapiens, HT-1376, 96 h, does not express FGFR3
# Procedure: as §1
row,IC50,SMILES
1,1.1 µM,"COc1cc2c(Oc3ccc4[nH]c(C)cc4c3F)ncnc2cc1OCCCN1CCCC1 [COMPOUND E, cediranib]"

# Tested on: RT112/84
# Experiment: as above
# Type: cell-based
# Details: Homo sapiens, RT112/84, 96 h, fusion polypeptide expressing
# Procedure: as §1
row,SMILES,IC50
1,"COc1cc2c(Oc3ccc4[nH]c(C)cc4c3F)ncnc2cc1OCCCN1CCCC1 [COMPOUND E, cediranib]",0.15 µM

# Tested on: RT4
# Experiment: as above
# Type: cell-based
# Details: Homo sapiens, RT-4, 96 h, fusion polypeptide expressing
# Procedure: as §1
row,SMILES,IC50
1,"COc1cc2c(Oc3ccc4[nH]c(C)cc4c3F)ncnc2cc1OCCCN1CCCC1 [COMPOUND E, cediranib]",0.24 µM

# Tested on: SW780
# Experiment: as above
# Type: cell-based
# Details: Homo sapiens, SW780, 96 h, fusion polypeptide expressing
# Procedure: as §1
row,IC50,SMILES
1,0.53 µM,"COc1cc2c(Oc3ccc4[nH]c(C)cc4c3F)ncnc2cc1OCCCN1CCCC1 [COMPOUND E, cediranib]"

# Tested on: UM-UC-14
# Experiment: as above
# Type: cell-based
# Details: Homo sapiens, UMUC14, 96 h, mutated type FGFR, no fusion
# Procedure: as §1
row,SMILES,IC50
1,"COc1cc2c(Oc3ccc4[nH]c(C)cc4c3F)ncnc2cc1OCCCN1CCCC1 [COMPOUND E, cediranib]",0.066 µM

# Tested on: colon cancer-derived cell line HCT116;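 note: proliferation measured with WST-8, IC50 derived by least-squares fitting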
# Experiment: cells
# Details: Homo sapiens, HCT-116, 96 h, read-out: HCT116 (CRC) IC50
row,SMILES,IC50
1,Cc1nc2cc(-n3ncc(C(=O)c4cc5ccc(OCC6(C)COC6)cc5[nH]4)c3N)ccc2[nH]1 [Compound 6],12 µM
2,Cc1nc2cc(-n3ncc(C(=O)c4cc5ccc(Br)cc5[nH]4)c3N)ccc2[nH]1 [Compound 44],10 µM
3,Cc1nc2cc(-n3ncc(C(=O)c4cc5c(C)cccc5[nH]4)c3N)ccc2[nH]1 [Compound 42],15 µM
4,Cc1nc2cc(-n3ncc(C(=O)c4cc5cc(F)c(C(F)(F)F)cc5[nH]4)c3N)ccc2[nH]1 [Compound 62],1.7 µM
5,Cc1nc2cc(-n3ncc(C(=O)c4cc5ccc(O)cc5[nH]4)c3N)ccc2[nH]1 [Compound 48],37 µM
6,Cc1nc2cc(-n3ncc(C(=O)c4cc5ccc(-c6ccc(N7CCOCC7)nc6)cc5[nH]4)c3N)ccc2[nH]1 [Compound 20],> 50 µM
7,Cc1nc2cc(-n3ncc(C(=O)c4cc5ccc(C6CC6)cc5[nH]4)c3N)ccc2[nH]1 [Compound 12],7.2 µM
8,Cc1nc2ccc(-n3ncc(C(=O)c4cc5ccc(Cl)cc5[nH]4)c3N)cc2[nH]1 [Compound 50],34 µM
9,Cc1nc2cc(-n3ncc(C(=O)c4cc5ccc(-c6ccc(F)cc6)cc5[nH]4)c3N)ccc2[nH]1 [Compound 64],1.2 µM
10,Cc1nc2ccc(-n3ncc(C(=O)c4cc5cc(C6CCNCC6)c(F)cc5[nH]4)c3N)cc2[nH]1 [Compound 55],16 µM
11,Cc1nc2ccc(-n3ncc(C(=O)c4cc5cc(CN6CCCC(F)C6)ccc5[nH]4)c3N)cc2[nH]1 (stereo not drawn) [Compound 4],9.5 µM
12,Cc1nc2cc(-n3ncc(C(=O)c4cc5ccc(-c6ccc(C(F)(F)F)cn6)cc5[nH]4)c3N)ccc2[nH]1 [Compound 52],10 µM
13,Cc1nc2cc(-n3ncc(C(=O)c4cc5c(OC(C)C)cccc5[nH]4)c3N)ccc2[nH]1 [Compound 56],19 µM
14,Cc1nc2cc(-n3ncc(C(=O)c4cc5ccc(OCCN6CCOCC6)cc5[nH]4)c3N)ccc2[nH]1 [Compound 45],9.4 µM
15,Cc1nc2cc(-n3ncc(C(=O)c4cc5ccc(CN6CCOC[C@@H]6C)cc5[nH]4)c3N)ccc2[nH]1 [Compound 3],2.9 µM
16,Cc1nc2cc(-n3ncc(C(=O)c4cc5ccc(OCc6ccccc6)cc5[nH]4)c3N)ccc2[nH]1 [Compound 59],3.3 µM
17,Cc1nc2cc(-n3ncc(C(=O)c4cc5cc(C(F)(F)F)ccc5[nH]4)c3N)ccc2[nH]1 [Compound 68],> 2 µM
18,Cc1nc2cc(-n3ncc(C(=O)c4cc5cc(C(=O)N6CCN(CC(F)(F)F)CC6)ccc5[nH]4)c3N)ccc2[nH]1 [Compound 57],> 20 µM
19,Cc1nc2ccc(-n3ncc(C(=O)c4[nH]c5ccccc5c4F)c3N)cc2[nH]1 [Compound 36],4.8 µM
20,C#Cc1cccc2[nH]c(C(=O)c3cnn(-c4ccc5[nH]c(C)nc5c4)c3N)cc12 [Compound 63],13 µM
21,Cc1nc2cc(-n3ncc(C(=O)c4cc5cc(Cc6ccccc6)ccc5[nH]4)c3N)ccc2[nH]1 [Compound 71],3.8 µM
22,COc1cc(OC)c2cc(C(=O)c3cnn(-c4ccc5[nH]c(C)nc5c4)c3N)[nH]c2c1 [Compound 37],8.9 µM

row,SMILES,IC50
1,Cc1nc2cc(-n3ncc(C(=O)c4cc5cc(OCC6CC6)ccc5[nH]4)c3N)ccc2[nH]1 [Compound 39],11 µM
2,COc1ccc2cc(C(=O)c3cnn(-c4ccc5[nH]c(C)nc5c4)c3N)[nH]c2c1 [Compound 18],11 µM
3,Cc1nc2cc(-n3ncc(C(=O)c4cc5ccc(OCCN6CCN(C)CC6)cc5[nH]4)c3N)ccc2[nH]1 [Compound 9],6.3 µM
4,Cc1ccc(-c2ccc3cc(C(=O)c4cnn(-c5ccc6[nH]c(C)nc6c5)c4N)[nH]c3c2)cn1 [Compound 41],> 20 µM
5,Cc1nc2cc(-n3ncc(C(=O)c4cc5ccc(I)cc5[nH]4)c3N)ccc2[nH]1 [Compound 22],1.2 µM
6,Cc1nc2ccc(-n3ncc(C(=O)c4cc5ccc(CO)cc5[nH]4)c3N)cc2[nH]1 [Compound 27],25 µM
7,Cc1nc2cc(-n3ncc(C(=O)c4cc5cc(C6CCN(C(C)C)CC6)c(C(F)(F)F)cc5[nH]4)c3N)ccc2[nH]1 [Compound 31],2 µM
8,Cc1nc2cc(-n3ncc(C(=O)c4cc5cc(F)c(Br)cc5[nH]4)c3N)ccc2[nH]1 [Compound 70],9 µM
9,Cc1nc2cc(-n3ncc(C(=O)c4cc5cc6c(cc5[nH]4)OCCO6)c3N)ccc2[nH]1 [Compound 14],3.1 µM
10,Cc1nc2ccc(-n3ncc(C(=O)c4cc5cc(C6CCN(C(C)C)CC6)ccc5[nH]4)c3N)cc2[nH]1 [Compound 11],5.7 µM
11,Cc1nc2cc(-n3ncc(C(=O)c4cc5ccc(NS(C)(=O)=O)cc5[nH]4)c3N)ccc2[nH]1 [Compound 66],> 50 µM
12,CCCCc1ccc2cc(C(=O)c3cnn(-c4ccc5nc(C)[nH]c5c4)c3N)[nH]c2c1 [Compound 16],17 µM
13,Cc1nc2cc(-n3ncc(C(=O)c4cc5ccc(OC6COC6)cc5[nH]4)c3N)ccc2[nH]1 [Compound 21],21 µM
14,COCCOc1ccc2[nH]c(C(=O)c3cnn(-c4ccc5[nH]c(C)nc5c4)c3N)cc2c1 [Compound 25],> 100 µM
15,Cc1nc2cc(-n3ncc(C(=O)c4cc5cc(C(=O)N6CCC(N7CCCCC7)CC6)ccc5[nH]4)c3N)ccc2[nH]1 [Compound 54],> 20 µM
16,Cc1nc2cc(-n3ncc(C(=O)c4cc5cc(C(C)(C)C)ccc5[nH]4)c3N)ccc2[nH]1 [Compound 33],4.4 µM
17,C#CCN(C)Cc1ccc2cc(C(=O)c3cnn(-c4ccc5[nH]c(C)nc5c4)c3N)[nH]c2c1 [Compound 19],2.5 µM
18,Cc1nc2ccc(-n3ncc(C(=O)c4cc5ccc(C#N)cc5[nH]4)c3N)cc2[nH]1 [Compound 10],> 50 µM
19,CN1CCC(c2ccc3[nH]c(C(=O)c4cnn(-c5ccc6nc(C(F)F)[nH]c6c5)c4N)cc3c2)CC1 [Compound 23],10 µM
20,Cc1nc2ccc(-n3ncc(C(=O)c4cc5cc(C6CCN(C7CCCC7)CC6)ccc5[nH]4)c3N)cc2[nH]1 [Compound 17],3.8 µM
21,Cc1nc2cc(-n3ncc(C(=O)c4cc5ncccc5[nH]4)c3N)ccc2[nH]1 [Compound 40],19 µM
22,Cc1cc(C)c2cc(C(=O)c3cnn(-c4ccc5[nH]c(C)nc5c4)c3N)[nH]c2c1 [Compound 29],8.5 µM

row,SMILES,IC50
1,CSc1ccc2cc(C(=O)c3cnn(-c4ccc5[nH]c(C)nc5c4)c3N)[nH]c2c1 [Compound 30],13 µM
2,Cc1nc2cc(-n3ncc(C(=O)c4cc5cc(-n6ccnc6)ccc5[nH]4)c3N)ccc2[nH]1 [Compound 65],23 µM
3,Cc1nc2ccc(-n3ncc(C(=O)c4cc5cc(-c6cccnc6)ccc5[nH]4)c3N)cc2[nH]1 [Compound 28],21 µM
4,CCCCOc1ccc2[nH]c(C(=O)c3cnn(-c4ccc5[nH]c(C)nc5c4)c3N)cc2c1 [Compound 38],6.1 µM
5,Cc1nc2cc(-n3ncc(C(=O)c4cc5cc(Oc6ccccc6)ccc5[nH]4)c3N)ccc2[nH]1 [Compound 69],4.3 µM
6,Cc1nc2cc(-n3ncc(C(=O)c4cc5ccccc5[nH]4)c3N)c(F)cc2[nH]1 [Compound 15],19 µM
7,Cc1nc2cc(-n3ncc(C(=O)c4cc5ccc(-c6cnn(C)c6)cc5[nH]4)c3N)ccc2[nH]1 [Compound 24],> 50 µM
8,COc1cc2[nH]c(C(=O)c3cnn(-c4ccc5[nH]c(C)nc5c4)c3N)cc2cc1Cl [Compound 58],12 µM
9,Cc1nc2cc(-n3ncc(C(=O)c4cc5ccc(-c6ccc(F)cn6)cc5[nH]4)c3N)ccc2[nH]1 [Compound 26],11 µM
10,Cc1nc2cc(-n3ncc(C(=O)c4cc5cc6c(cc5[nH]4)OC(F)(F)O6)c3N)ccc2[nH]1 [Compound 53],> 20 µM
11,Cc1nc2cc(-n3ncc(C(=O)c4cc5ccc(OC6CCOCC6)cc5[nH]4)c3N)ccc2[nH]1 [Compound 67],7.3 µM
12,Cc1nc2ccc(-n3ncc(C(=O)c4cc5ccc(C6CCN(C)CC6)cc5[nH]4)c3N)cc2[nH]1 [Compound 2],2.7 µM
13,Cc1nc2cc(-n3ncc(C(=O)c4cc5cc(CN6CCN(S(C)(=O)=O)CC6)ccc5[nH]4)c3N)ccc2[nH]1 [Compound 47],14 µM
14,Cc1nc2ccc(-n3ncc(C(=O)c4cc5cc(CN6C(C)CCC6C)ccc5[nH]4)c3N)cc2[nH]1 (stereo not drawn) [Compound 5],11 µM
15,COc1ncccc1-c1ccc2cc(C(=O)c3cnn(-c4ccc5[nH]c(C)nc5c4)c3N)[nH]c2c1 [Compound 43],> 50 µM
16,Cc1nc2cc(-n3ncc(C(=O)c4cc5ccc(-c6cncc(S(C)(=O)=O)c6)cc5[nH]4)c3N)ccc2[nH]1 [Compound 35],7.8 µM
17,Cc1nc2cc(-n3ncc(C(=O)c4cc5cc(C(=O)N6CCCC(F)(F)C6)ccc5[nH]4)c3N)ccc2[nH]1 [Compound 60],17 µM
18,Cc1nc2ccc(-n3ncc(C(=O)c4cc5ccc(-c6cccs6)cc5[nH]4)c3N)cc2[nH]1 [Compound 13],0.39 µM
19,Cc1nc2ccc(-n3ncc(C(=O)c4cc5cc(C6=CCNCC6)ccc5[nH]4)c3N)cc2[nH]1 [Compound 32],8.7 µM
20,COc1ccccc1-c1ccc2cc(C(=O)c3cnn(-c4ccc5[nH]c(C)nc5c4)c3N)[nH]c2c1 [Compound 51],5.1 µM
21,Cc1nc2cc(-n3ncc(C(=O)c4cc5cc(SC(F)(F)F)ccc5[nH]4)c3N)ccc2[nH]1 [Compound 61],9.1 µM
22,COCCN(CCOC)Cc1ccc2cc(C(=O)c3cnn(-c4ccc5[nH]c(C)nc5c4)c3N)[nH]c2c1 [Compound 8],11 µM
